Key:
cancer cells = test: LDH assay of cytotoxicity; type: cell-based; conditions: 0.5 mg/mL
From the text: (§1) In addition, an LDH assay was adopted to determine the cytotoxicity of ATCA and detect the cytotoxicity of the drug.

normal cells (HBE) = test: LDH assay of cytotoxicity; type: cell-based; conditions: 0.5 mg/mL
From the text: as §1

EIF2S1 = biological target: T1, EIF2S1 (Homo sapiens, UniProt P05198); test: CESTA-WB (cellular thermal shift assay-Western blotting), H1299 cell lysate; type: binding; conditions: ATCA 10 nM to 10 mM, 55° C. for 3 min, FIG. 1
T1 construct: endogenous in cells; host or cells: H1299
T1 sequence (P05198 whole entry): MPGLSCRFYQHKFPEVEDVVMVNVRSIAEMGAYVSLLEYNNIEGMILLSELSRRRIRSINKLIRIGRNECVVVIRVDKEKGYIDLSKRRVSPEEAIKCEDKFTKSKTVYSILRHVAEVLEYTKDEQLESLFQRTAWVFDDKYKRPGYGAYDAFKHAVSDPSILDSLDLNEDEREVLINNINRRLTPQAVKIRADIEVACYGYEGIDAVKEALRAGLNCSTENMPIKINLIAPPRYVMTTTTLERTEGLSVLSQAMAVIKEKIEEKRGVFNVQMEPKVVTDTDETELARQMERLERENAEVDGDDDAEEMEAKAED
Method: CESTA-WB experiment: H1299 cells were plated and cultured in a 15 cm dish, and when a cell density reached about 90% to 100%, the medium was aspirated; the cells were washed twice with PBS, and 2 mL of Lysis Buffer (RB Buffer, 10% N-Dodecyl-β-D-maltoside, and 1× protease inhibitor) was added to each dish and placed flatly on ice to allow lysis for 30 min, and a cell lysate was collected and centrifuged at 17,000 g, 4° C. for 10 min; a resulting supernatant was quantified using a BCA kit. 45 μL of a whole protein was added in a PCR tube, ATCA was added to final concentrations of 10 mM, 1 mM, 100 μM, 10 μM, 1 μM, 100 nM, and 10 nM, respectively, and allowed to stand at 25° C. for 30 min to allow the ATCA to fully interact with the whole protein; while another two tubes without ATCA were taken as controls. The experimental group was treated at 55° C. for 3 min, while one tube in the control group was treated at 37° C. for 3 min, and the other tube was treated at 50° C. for 3 min; centrifugation was conducted at 17,000×g for 10 min at 4° C. to remove denatured proteins. The supernatant was transferred into a new PCR tube, and 5 μg of the supernatant was added into 5×SDS Loading Buffer to allow denaturation in a 100° C. water bath; the Western Blotting was conducted to quantify EEF2, EIF2S1, B-actin, and Vinculin proteins.
Western Blotting experiment: the sample and molecular weight standard of pre-stained protein were loaded onto an SDS-PAGE gel (10 cmx 10 cm) to allow electrophoresis at 100 V for 40 min. The proteins in SDS-PAGE were transferred to nitrocellulose membrane at 100 V, 230 mA within 1 h. After transfer, the nitrocellulose membrane was washed with 25 mL of TBS for 5 min at room temperature. The nitrocellulose membrane was placed in 25 mL of blocking buffer (TBST, 5% skim milk) and incubated at room temperature for 1 h. The membrane was washed three times with 15 mL TBST, 5 min each. […]

H1299 cells = test: Transcriptome sequencing with KEGG pathway enrichment of down-regulated genes; type: cell-based, human; conditions: 1 mg/mL ATCA, 48 h, FIG. 7
Method: 1 mg/mL ATCA was added to the culture medium of a T75 cell culture flask filled with three million of H1299 cells as a treatment group, and an equal volume of PBS was added as a control group. After ATCA treatment for 48 h, the cultured supernatant was discarded, and the cells were placed on ice, washed twice with pre-cooled PBS. The PBS was discarded, 5 mL of pre-cooled Trizol (total RNA extraction reagent) was added, mixed by shaking thoroughly. […]

O=C(O)C1=CC(=C(c2ccc(O)c(C(=O)O)c2)c2ccc(O)c(C(=O)O)c2)C=CC1=O [ATCA, aurintricarboxylic acid]
cytotoxicity to cancer cells (LDH) (cancer cells): did not cause obvious cytotoxicity
cytotoxicity to normal cells (LDH) (normal cells (HBE)): did not cause obvious cytotoxicity
binding to target protein EIF2S1 (EIF2S1): binds
further significantly down-regulated pathways (KEGG enrichment) (H1299 cells): platinum drug-resistance, TGF-beta signaling pathway, signaling pathways regulating pluripotency of stem cells, and FoxO signaling pathway
most significantly down-regulated pathway (KEGG enrichment) (H1299 cells): cell cycle

From US20250222011A1, “DRUG TARGET FOR INHIBITING TUMOR, USE, AND ORAL DRUG” (CHI BIOTECH CO., LTD., priority 2024, published 2025)
